The values that follow come from paper PMC9366811, “Antiviral activity of natural phenolic compounds in complex at an allosteric site of SARS-CoV-2 papain-like protease” (Communications Biology, 2022).

In general, IC50 refers to the midpoint of a concentration-inhibition curve. For orientation: Kd means the equilibrium constant for the complex coming apart. Usually inhibition stands for the share of the control response that was lost under treatment.

Read-outs that look alike come from different tables or passages of the source.

Data set [1] relates to SARS-CoV-2. Description: Antiviral activity assay in Vero cells, viral RNA by qRT-PCR. Format: cell-based. Particulars: Severe acute respiratory syndrome coronavirus 2, MOI 0.01, qRT-PCR, 42 h post-infection, read-out: IC50 Antiviral cell assay (reduction of viral RNA replication). Background: In qPCR the cycle at which signal appears reflects the starting amount.
The test system of data set [2] is SARS-CoV-2. Description: microbe, parasite or virus in culture. Format: cell-based. Particulars: Vero cells, MOI 0.01, 42 h, CellTiter-Glo; for IC50: read-out: IC50 CPE inhibition. (ATP-based viability assays read luminescence as a measure of living cells.)
For data set [3], the target named is PLpro (Severe acute respiratory syndrome coronavirus 2, UniProt P0DTC1). Description: nanoDSF fluorescence titration (quenching of PLpro fluorescence). Format: binding, SARS-CoV-2.
Data set [4] concerns Vero cell lines (ATCC CCL-81).
For data set [5], the target named is T1, SARS-CoV-2 PLpro (Severe acute respiratory syndrome coronavirus 2, UniProt P0DTC1). The data set is classed as biochemical. The settings on record: compound at 50 µM, compared with ISG15-Rhodamine substrate.
Data set [6] has as its target T1, SARS-CoV-2 PLpro. Description: biochemical. Particulars: for inhibition at 50 µM: compound at 50 µM, 10 nM PLpro, ISG15-Rhodamine 100 nM, preincubation 6 h at 10 °C, read-out: % Inhibition of PLpro deISGylation activity.
Data set [7] deals with SARS-CoV-2 main protease (Mpro) (Severe acute respiratory syndrome coronavirus 2, UniProt P0DTC1). Nature of the data set: FRET-based Mpro inhibition assay. The data set is classed as biochemical. Particulars: substrate 2-AbzSAVLQSGTyr(3-NO2)R-OH, incubated with Mpro for 30 minutes. How it is done:
Activity assays were performed for SARS-CoV-2 Mpro[16],[71] utilizing the three natural compounds, aiming to characterize the specificity of the compounds towards PLpro. The assays were performed applying a total reaction volume of 50 µL using non-binding, black bottom, 96-well plates and the relative fluorescence was measured utilizing a Tecan Infinite M plus plate reader (Tecan Group Ltd, Switzerland) using optical settings specific for the substrate 2-Abz[…]yr(3-NO2)R-OH (Biotrend). The corresponding fluorophore has an excitation and emission at 355 nm and 460 nm wavelength respectively. The substrate and Mpro were used at a final concentration of 5 µM and 75 nM respectively. The known Mpro inhibitor (GC-376) was used as positive control throughout the assay. SARS-CoV-2 Mpro and substrates were diluted in assay buffer (20 mM Tris-HCl pH 7.3, 150 mM NaCl, 1 mM EDTA, 1 mM DTT) and reactions were initiated upon addition of Mpro in a final volume of 50 µL and were measured at 25 °C. The three compounds were incubated prior to the experiments with Mpro at 10 °C for 6 h, as accomplished also for the PLpro activity assays. Fluorescence values were measured for 15 min with one read out per minute. […]
311 with Mpro for 6h at 10 °C and fluorescence was measured for 15 min with read - […]
318 were incubated with the Mpro for 30 minutes. The IC50 values were calculated by […]

With `COC(=O)c1ccc(O)c(O)c1` [HE9, methyl 3,4-dihydroxybenzoate], the 50% inhibitory concentration (IC50) was found to be 0.13 µM in data set [1]; 10.4 µM in data set [2] (Severe acute respiratory syndrome coronavirus 2, Vero, 42 h); 10 µM in data set [2]. In addition, in data set [3] (nanoDSF fluorescence titration, 50 μM PLpro, 0.5% DMSO, depending on the emission wavelength used (330/350 nm), read-out: Kd), the Kd worked out at 1000 µM. Moreover, the “cell toxicity at 100 µM” value in data set [4] was “no associated cell toxicity”.
Consider `O=Cc1ccc(O)cc1` [HBA, 4-hydroxybenzaldehyde], for which, in data set [2], the “IC50 CPE inhibition” value was “unable to fit a sigmoidal curve”. Besides, in data set [5], the “inhibition of PLpro with Ub-Rhodamine as substrate” value is on record as “not as pronounced”. The same molecule had an equilibrium dissociation constant (Kd) in data set [3] of approximately 400 µM. Further, in data set [6], 3.99 ± 1.33 µM corresponded to half-maximal inhibition (IC50) and the inhibition at 50 µM is approximately 73%.
`CC(C)C[C@H](NC(=O)OCc1ccccc1)C(=O)N[C@@H](CC1CCNC1=O)C(O)S(=O)(=O)O` (some centres unmarked) [GC-376] yielded an IC50 in data set [7] of 1.1 µM.
As for `OCCc1ccc(O)cc1` [YRL, 4-(2-hydroxyethyl)phenol], in data set [1], the IC50 was 1 µM. Besides, the “IC50 CPE inhibition” value in data set [2] is given as “unable to fit a sigmoidal curve”. Further, in data set [5], the “inhibition of PLpro with Ub-Rhodamine as substrate” value is recorded as “not as pronounced”. The “cell toxicity at 100 µM” value in data set [4] is recorded as “no associated cell toxicity”. Further, in data set [6], the 50% inhibitory concentration (IC50) is 6.68 ± 1.2 µM and the inhibition at 50 µM was approximately 70%.
